According to the supplement of paper PMC10307832:

How the values were obtained:
Assay in all cases: relative viability (nuclei count vs DMSO), 5 days (fraction); higher = more cells survive
AZ505 + Pictilisib = compound: C1CCC(CC1)N(CCNCCC2=C3C(=C(C=C2)O)NC(=O)CO3)C(=O)CCNCCC4=CC(=C(C=C4)Cl)Cl [AZ505] + CS(=O)(=O)N1CCN(Cc2cc3nc(-c4cccc5[nH]ncc45)nc(N4CCOCC4)c3s2)CC1 [Pictilisib] (partner 1 µM)
Outline: (§1)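 Relative viability divides the nuclei count in treated wells by that in vehicle wells. Lung cancer cell lines were seeded in 1536-well plates, dosed by pin tool the next day, and fixed and stained after 5 days in one step with final 0.05% Triton X-100, 1% formaldehyde and 1 ug/ml Hoechst. Dosing was a single drug or a fixed anchor-drug dose plus five library-drug doses (not always all listed) in √10 steps, and values are medians of duplicate plates imaged at 4×.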

AZ505 + Crizotinib = compound: C1CCC(CC1)N(CCNCCC2=C3C(=C(C=C2)O)NC(=O)CO3)C(=O)CCNCCC4=CC(=C(C=C4)Cl)Cl [AZ505] + C[C@@H](Oc1cc(-c2cnn(C3CCNCC3)c2)cnc1N)c1c(Cl)ccc(F)c1Cl [Crizotinib] (partner 1 µM)
Outline: as §1

Dactolisib + Trametinib = compound: Cn1c(=O)n(-c2ccc(C(C)(C)C#N)cc2)c2c3cc(-c4cnc5ccccc5c4)ccc3ncc21 [Dactolisib] + CC(=O)Nc1cccc(-n2c(=O)n(C3CC3)c(=O)c3c(Nc4ccc(I)cc4F)n(C)c(=O)c(C)c32)c1 [Trametinib] (partner 0.02 µM)
Outline: as §1

Dactolisib + Bortezomib = compound: Cn1c(=O)n(-c2ccc(C(C)(C)C#N)cc2)c2c3cc(-c4cnc5ccccc5c4)ccc3ncc21 [Dactolisib] + CC(C)C[C@H](NC(=O)[C@H](Cc1ccccc1)NC(=O)c1cnccn1)B(O)O [Bortezomib] (partner 0.002 µM)
Outline: as §1

UMC-11
relative viability (AZ505 + Pictilisib; first compound 0.08 µM): 0.753 | relative viability (AZ505 + Pictilisib; first compound 0.253 µM): 0.766 | relative viability (AZ505 + Pictilisib; first compound 0.8 µM): 0.688 | relative viability (AZ505 + Pictilisib; first compound 2.53 µM): 0.972 | relative viability (AZ505 + Pictilisib; first compound 8 µM): 0.974 | relative viability (AZ505 + Crizotinib; first compound 0.08 µM): 0.537 | relative viability (AZ505 + Crizotinib; first compound 0.253 µM): 0.588 | relative viability (AZ505 + Crizotinib; first compound 0.8 µM): 0.639 | relative viability (AZ505 + Crizotinib; first compound 2.53 µM): 0.709 | relative viability (AZ505 + Crizotinib; first compound 8 µM): 0.573 | relative viability (Dactolisib + Trametinib; first compound 0.002 µM): 0.642 | relative viability (Dactolisib + Trametinib; first compound 0.006325 µM): 0.637 | relative viability (Dactolisib + Trametinib; first compound 0.02 µM): 0.578 | relative viability (Dactolisib + Trametinib; first compound 0.06325 µM): 0.282 | relative viability (Dactolisib + Trametinib; first compound 0.2 µM): 0.2 | relative viability (Dactolisib + Bortezomib; first compound 0.002 µM): 0.732 | relative viability (Dactolisib + Bortezomib; first compound 0.006325 µM): 0.649 | relative viability (Dactolisib + Bortezomib; first compound 0.02 µM): 0.57 | relative viability (Dactolisib + Bortezomib; first compound 0.06325 µM): 0.261 | relative viability (Dactolisib + Bortezomib; first compound 0.2 µM): 0.18
